Results as given in patent US11980188B2, “Spiro cyclohexanedione derivates as herbicides” (SYNGENTA PARTICIPATIONS AG, priority 2018, dated 2024).

Assays:
Experiment in all cases: Glasshouse herbicide test, pre- and post-emergence, percentage damage
Format in all cases: in vivo
[1] = test system: Alopecurus myosuroides (ALOMY); settings: 250 g/h, evaluated after 13 days, percentage damage on five point scale; for ALOMY POST: post-emergence; for ALOMY PRE: pre-emergence
Experimental: (§1) Seeds of a variety of test species are sown in standard soil in pots (Lolium perenne (LOLPE), Setaria faberi (SETFA), Alopecurus myosuroides (ALOMY), Echinochloa crus-galli (ECHCG), Avena fatua (AVEFA)). After cultivation for one day (pre-emergence) or after 8 days cultivation (post-emergence) under controlled conditions in a glasshouse (at 24/16° C., day/night; 14 hours light; 65% humidity), the plants are sprayed with an aqueous spray solution derived from the formulation of the technical active ingredient in acetone/water (50:50) solution containing 0.5% Tween 20 (polyoxyethelyene sorbitan monolaurate, CAS RN 9005-64-5). Compounds are applied at […]. The test plants are then grown in a glasshouse under controlled conditions in a glasshouse (at 24/16° C., day/night; 14 hours light; 65% humidity) and watered twice daily. After 13 days for pre and post-emergence, the test is evaluated for the percentage damage caused to the plant. The biological activities are shown in the following table on a five point scale (5=80-100%; 4=60-79%; 3=40-59%; 2=20-39%; 1=0-19%).

Avena fatua (AVEFA) = settings: 250 g/h, evaluated after 13 days, percentage damage on five point scale; for AVEFA POST: post-emergence; for AVEFA PRE: pre-emergence
Experimental: as §1

[2] = test system: Echinochloa crus-galli (ECHCG); settings: 250 g/h, evaluated after 13 days, percentage damage on five point scale; for ECHCG PRE: pre-emergence; for ECHCG POST: post-emergence
Experimental: as §1

Lolium perenne (LOLPE) = settings: 250 g/h, evaluated after 13 days, percentage damage on five point scale; for LOLPE POST: post-emergence; for LOLPE PRE: pre-emergence
Experimental: as §1

Setaria faberi (SETFA) = settings: 250 g/h, evaluated after 13 days, percentage damage on five point scale; for SETFA POST: post-emergence; for SETFA PRE: pre-emergence
Experimental: as §1

| SMILES | ALOMY POST [1] | ALOMY PRE [1] | AVEFA POST (Avena fatua (AVEFA)) | AVEFA PRE (Avena fatua (AVEFA)) | ECHCG PRE [2] | LOLPE POST (Lolium perenne (LOLPE)) | LOLPE PRE (Lolium perenne (LOLPE)) | SETFA POST (Setaria faberi (SETFA)) | SETFA PRE (Setaria faberi (SETFA)) | ECHCG POST [2] |
| --- | --- | --- | --- | --- | --- | --- | --- | --- | --- | --- |
| Cc1cc(-c2ncc(F)cn2)cc(C)c1C1C(=O)CC2(CCN(C(=O)NC(=O)C(C)(C)C)CC2)CC1=O [Compound A37] | 5 (5=80-100%) | 5 (5=80-100%) | 5 (5=80-100%) | 5 (5=80-100%) | 5 (5=80-100%) | 5 (5=80-100%) | 5 (5=80-100%) | 5 (5=80-100%) | 5 (5=80-100%) | – |
| Cc1cc(-c2ncc(F)cn2)cc(C)c1C1C(=O)CC2(CCN(C(=O)C3CC3)CC2)CC1=O [Compound A38] | 5 (5=80-100%) | 5 (5=80-100%) | 5 (5=80-100%) | 5 (5=80-100%) | 5 (5=80-100%) | 5 (5=80-100%) | 5 (5=80-100%) | 5 (5=80-100%) | 5 (5=80-100%) | 5 (5=80-100%) |
| Cc1cc(-c2ncc(F)cn2)cc(C)c1C1C(=O)CC2(CCN(C(=O)C(F)F)CC2)CC1=O [Compound A39] | 5 (5=80-100%) | 5 (5=80-100%) | 5 (5=80-100%) | 5 (5=80-100%) | 5 (5=80-100%) | 5 (5=80-100%) | 5 (5=80-100%) | 5 (5=80-100%) | 5 (5=80-100%) | 5 (5=80-100%) |
| Cc1cc(-c2ncc(F)cn2)cc(C)c1C1C(=O)CC2(CCN(C(=O)C(C)(C)C)CC2)CC1=O [Compound A40] | 5 (5=80-100%) | 5 (5=80-100%) | 5 (5=80-100%) | 5 (5=80-100%) | 5 (5=80-100%) | 5 (5=80-100%) | 5 (5=80-100%) | 5 (5=80-100%) | 5 (5=80-100%) | 5 (5=80-100%) |
| Cc1cc(-c2ncc(F)cn2)cc(C)c1C1C(=O)CC2(CCN(C(=O)NC(=O)c3ccccn3)CC2)CC1=O [Compound A41] | 5 (5=80-100%) | 3 (3=40-59%) | 5 (5=80-100%) | 3 (3=40-59%) | 4 (4=60-79%) | 5 (5=80-100%) | 3 (3=40-59%) | 5 (5=80-100%) | 5 (5=80-100%) | 5 (5=80-100%) |
| CC(=O)N1CCC2(CC1)CC(=O)C(c1c(C)cc(C)cc1C)C(=O)C2 [Compound A42] | 5 (5=80-100%) | 5 (5=80-100%) | 5 (5=80-100%) | 5 (5=80-100%) | 3 (3=40-59%) | 5 (5=80-100%) | 5 (5=80-100%) | 5 (5=80-100%) | 5 (5=80-100%) | 1 (1=0-19%) |
| Cc1cc(-c2ncc(F)cn2)cc(C)c1C1C(=O)CC2(CCN(C(=O)CC#N)CC2)CC1=O [Compound A43] | 5 (5=80-100%) | 5 (5=80-100%) | 5 (5=80-100%) | 5 (5=80-100%) | 5 (5=80-100%) | 5 (5=80-100%) | 5 (5=80-100%) | 5 (5=80-100%) | 5 (5=80-100%) | 5 (5=80-100%) |
| Cc1cc(-c2ccc(C#N)cn2)cc(C)c1C1C(=O)CC2(CCN(C(=O)CC#N)CC2)CC1=O [Compound A44] | 5 (5=80-100%) | 5 (5=80-100%) | 5 (5=80-100%) | 3 (3=40-59%) | 5 (5=80-100%) | 5 (5=80-100%) | 3 (3=40-59%) | 5 (5=80-100%) | 5 (5=80-100%) | 4 (4=60-79%) |
| CC(=O)N1CCC2(CC1)CC(=O)C(c1c(C)cc(-c3ccc(Cl)cn3)cc1C)C(=O)C2 [Compound A45] | 5 (5=80-100%) | 5 (5=80-100%) | 5 (5=80-100%) | 5 (5=80-100%) | 5 (5=80-100%) | 5 (5=80-100%) | 5 (5=80-100%) | 5 (5=80-100%) | 5 (5=80-100%) | 5 (5=80-100%) |
